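Exposure lasted 48 hours, with cells grown in 96-well plates and compounds tested at five concentrations. Here, GI50 denotes the concentration required for 50% inhibition of growth. Definition used: TGI = concentration required for complete inhibition of growth.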
Columns and labels:
Test in all cases: DTP human tumour cell line panel, 48 h
SNB-75 CNS = test system: SNB-75 CNS
SR leukemia = test system: SR leukemia
LOX IMVI melanoma = test system: LOX IMVI melanoma
HT29 colon = test system: HT29 colon
PC-3 prostate = test system: PC-3 prostate
MDA-MB-468 breast = test system: MDA-MB-468 breast
MDA-MB-231 breast = test system: MDA-MB-231 breast
HCT-15 colon = test system: HCT-15 colon
NCI-H522 lung = test system: NCI-H522 lung
HCT-116 colon = test system: HCT-116 colon
U251 CNS = test system: U251 CNS
786-0 renal = test system: 786-0 renal
NCI/ADR-RES ovarian = test system: NCI/ADR-RES ovarian
OVCAR-5 ovarian = test system: OVCAR-5 ovarian
TK-10 renal = test system: TK-10 renal
ACHN renal = test system: ACHN renal
MCF7 breast = test system: MCF7 breast
MOLT-4 leukemia = test system: MOLT-4 leukemia
HL-60(TB) leukemia = test system: HL-60(TB) leukemia
SNB-19 CNS = test system: SNB-19 CNS
COLO 205 colon = test system: COLO 205 colon
UACC-257 melanoma = test system: UACC-257 melanoma
A549 NSCLC = test system: A549 NSCLC
UACC-62 melanoma = test system: UACC-62 melanoma
SF-268 CNS = test system: SF-268 CNS
A498 renal = test system: A498 renal
EKVX NSCLC = test system: EKVX NSCLC
SW-620 colon = test system: SW-620 colon
UO-31 renal = test system: UO-31 renal
OVCAR-4 ovarian = test system: OVCAR-4 ovarian
CCRF-CEM leukemia = test system: CCRF-CEM leukemia
SK-OV-3 ovarian = test system: SK-OV-3 ovarian
HOP-92 NSCLC = test system: HOP-92 NSCLC
MDA-MB-435 = test system: MDA-MB-435
RPMI-8226 leukemia = test system: RPMI-8226 leukemia
M14 melanoma = test system: M14 melanoma
MALME-3M melanoma = test system: MALME-3M melanoma
SF-539 CNS = test system: SF-539 CNS
BT-549 breast = test system: BT-549 breast
CAKI-1 renal = test system: CAKI-1 renal
SK-MEL-2 melanoma = test system: SK-MEL-2 melanoma
SK-MEL-5 melanoma = test system: SK-MEL-5 melanoma
SF-295 CNS = test system: SF-295 CNS
DU-145 prostate = test system: DU-145 prostate
SK-MEL-28 melanoma = test system: SK-MEL-28 melanoma
T-47D breast = test system: T-47D breast
IGROV1 ovarian = test system: IGROV1 ovarian
HOP-62 NSCLC = test system: HOP-62 NSCLC
NCI-H226 lung = test system: NCI-H226 lung
HS 578T breast = test system: HS 578T breast
K-562 leukemia = test system: K-562 leukemia
KM12 colon = test system: KM12 colon
RXF 393 renal = test system: RXF 393 renal
NCI-H460 lung = test system: NCI-H460 lung
SN12C renal = test system: SN12C renal
HCC-2998 colon = test system: HCC-2998 colon
OVCAR-8 ovarian = test system: OVCAR-8 ovarian
NCI-H23 lung = test system: NCI-H23 lung
OVCAR-3 ovarian = test system: OVCAR-3 ovarian

Which GI50 (SNB-75 CNS) does the source give for `CCOP(=O)(OCC)O[C@H]1CC[C@]2(C)[C@H]3CC[C@@H]4[C@@H]([C@](C)(O)CCC=C(C)C)CC[C@@]4(C)[C@]3(C)CC[C@H]2C1(C)C` here?
Its GI50 is 7.02 µM.

What about the TGI (SNB-75 CNS) of the same compound?
Its TGI is 22.4 µM.

What about the GI50 (SR leukemia) of the same compound?
Its GI50 is 3.12 µM.

And the TGI (SR leukemia)?
The TGI was 98.8 µM.

What about the GI50 (LOX IMVI melanoma) of the same compound?
Its GI50 is 12.7 µM.

And the TGI (LOX IMVI melanoma)?
Its TGI is 25.2 µM.

And the GI50 (HT29 colon)?
Its GI50 is 7.35 µM.

What about the TGI (HT29 colon) of the same compound?
The TGI was 23.2 µM.

What about the GI50 (PC-3 prostate) of the same compound?
The GI50 was 3.45 µM.

What about the TGI (PC-3 prostate) of the same compound?
The TGI was 17 µM.

And the GI50 (MDA-MB-468 breast)?
Its GI50 is 5.1 µM.

And the TGI (MDA-MB-468 breast)?
The TGI was 18.2 µM.

What about the GI50 (MDA-MB-231 breast) of the same compound?
The GI50 was 11.5 µM.

And the TGI (MDA-MB-231 breast)?
The TGI was 23.7 µM.

What about the GI50 (HCT-15 colon) of the same compound?
Its GI50 is 10.7 µM.

What about the TGI (HCT-15 colon) of the same compound?
Its TGI is 22.4 µM.

And the GI50 (NCI-H522 lung)?
Its GI50 is 11.5 µM.

And the TGI (NCI-H522 lung)?
The TGI was 25.9 µM.

What about the GI50 (HCT-116 colon) of the same compound?
Its GI50 is 5.91 µM.

And the TGI (HCT-116 colon)?
Its TGI is 21.7 µM.

And the GI50 (U251 CNS)?
Its GI50 is 11.8 µM.

And the TGI (U251 CNS)?
The TGI was 28.4 µM.

And the GI50 (786-0 renal)?
Its GI50 is 11.9 µM.

And the TGI (786-0 renal)?
Its TGI is 28.3 µM.

And the GI50 (NCI/ADR-RES ovarian)?
The GI50 was 14.7 µM.

And the TGI (NCI/ADR-RES ovarian)?
Its TGI is 28.5 µM.

And the GI50 (OVCAR-5 ovarian)?
Its GI50 is 12.7 µM.

And the TGI (OVCAR-5 ovarian)?
Its TGI is 25.2 µM.

And the GI50 (TK-10 renal)?
The GI50 was 13.5 µM.

And the TGI (TK-10 renal)?
Its TGI is 27.7 µM.

What about the GI50 (ACHN renal) of the same compound?
The GI50 was 12.5 µM.

What about the TGI (ACHN renal) of the same compound?
The TGI was 25 µM.

What about the GI50 (MCF7 breast) of the same compound?
Its GI50 is 7.26 µM.

And the TGI (MCF7 breast)?
The TGI was 20.5 µM.

What about the GI50 (MOLT-4 leukemia) of the same compound?
Its GI50 is 8.07 µM.

What about the TGI (MOLT-4 leukemia) of the same compound?
The TGI was 29.1 µM.

What about the GI50 (HL-60(TB) leukemia) of the same compound?
Its GI50 is 8.49 µM.

And the TGI (HL-60(TB) leukemia)?
The TGI was 33.2 µM.

What about the GI50 (SNB-19 CNS) of the same compound?
The GI50 was 13.4 µM.

What about the TGI (SNB-19 CNS) of the same compound?
The TGI was 26.1 µM.

And the GI50 (COLO 205 colon)?
Its GI50 is 12.4 µM.

And the TGI (COLO 205 colon)?
Its TGI is 29.5 µM.

And the GI50 (UACC-257 melanoma)?
Its GI50 is 12.4 µM.

What about the TGI (UACC-257 melanoma) of the same compound?
The TGI was 27.3 µM.

And the GI50 (A549 NSCLC)?
The GI50 was 12.6 µM.

And the TGI (A549 NSCLC)?
Its TGI is 30.3 µM.

And the GI50 (UACC-62 melanoma)?
The GI50 was 10.7 µM.

What about the TGI (UACC-62 melanoma) of the same compound?
The TGI was 22.6 µM.

And the GI50 (SF-268 CNS)?
The GI50 was 12.7 µM.

What about the TGI (SF-268 CNS) of the same compound?
The TGI was 30.9 µM.

What about the GI50 (A498 renal) of the same compound?
Its GI50 is 12.4 µM.

And the TGI (A498 renal)?
The TGI was 25.1 µM.

What about the GI50 (EKVX NSCLC) of the same compound?
Its GI50 is 10.1 µM.

What about the TGI (EKVX NSCLC) of the same compound?
The TGI was 21.6 µM.

And the GI50 (SW-620 colon)?
The GI50 was 13.2 µM.

What about the TGI (SW-620 colon) of the same compound?
The TGI was 27.4 µM.

What about the GI50 (UO-31 renal) of the same compound?
The GI50 was 10.1 µM.

What about the TGI (UO-31 renal) of the same compound?
The TGI was 21.6 µM.

What about the GI50 (OVCAR-4 ovarian) of the same compound?
The GI50 was 13.4 µM.

And the TGI (OVCAR-4 ovarian)?
The TGI was 32 µM.

What about the GI50 (CCRF-CEM leukemia) of the same compound?
Its GI50 is 11.5 µM.

And the TGI (CCRF-CEM leukemia)?
The TGI was 29.3 µM.

And the GI50 (SK-OV-3 ovarian)?
The GI50 was 12.3 µM.

And the TGI (SK-OV-3 ovarian)?
Its TGI is 27 µM.

And the GI50 (HOP-92 NSCLC)?
Its GI50 is 10.3 µM.

And the TGI (HOP-92 NSCLC)?
The TGI was 23.4 µM.

And the GI50 (MDA-MB-435)?
The GI50 was 12.8 µM.

And the TGI (MDA-MB-435)?
The TGI was 27.1 µM.

What about the GI50 (RPMI-8226 leukemia) of the same compound?
The GI50 was 3.02 µM.

And the TGI (RPMI-8226 leukemia)?
Its TGI is 17.5 µM.

What about the GI50 (M14 melanoma) of the same compound?
The GI50 was 14.9 µM.

And the TGI (M14 melanoma)?
Its TGI is 35 µM.

And the GI50 (MALME-3M melanoma)?
Its GI50 is 11.7 µM.

And the TGI (MALME-3M melanoma)?
The TGI was 24 µM.

And the GI50 (SF-539 CNS)?
Its GI50 is 13.2 µM.

What about the TGI (SF-539 CNS) of the same compound?
Its TGI is 25.8 µM.

And the GI50 (BT-549 breast)?
Its GI50 is 14.9 µM.

And the TGI (BT-549 breast)?
Its TGI is 29.1 µM.

What about the GI50 (CAKI-1 renal) of the same compound?
The GI50 was 10.3 µM.

What about the TGI (CAKI-1 renal) of the same compound?
The TGI was 22.8 µM.

What about the GI50 (SK-MEL-2 melanoma) of the same compound?
Its GI50 is 13.2 µM.

And the TGI (SK-MEL-2 melanoma)?
The TGI was 26.9 µM.

What about the GI50 (SK-MEL-5 melanoma) of the same compound?
Its GI50 is 10.4 µM.

And the TGI (SK-MEL-5 melanoma)?
The TGI was 22.2 µM.

And the GI50 (SF-295 CNS)?
The GI50 was 12.4 µM.

What about the TGI (SF-295 CNS) of the same compound?
The TGI was 24.8 µM.

And the GI50 (DU-145 prostate)?
Its GI50 is 14.8 µM.

What about the TGI (DU-145 prostate) of the same compound?
The TGI was 30.4 µM.

And the GI50 (SK-MEL-28 melanoma)?
The GI50 was 12.9 µM.

What about the TGI (SK-MEL-28 melanoma) of the same compound?
Its TGI is 25.8 µM.

And the GI50 (T-47D breast)?
The GI50 was 7.62 µM.

And the TGI (T-47D breast)?
The TGI was 25.2 µM.

And the GI50 (IGROV1 ovarian)?
Its GI50 is 13.8 µM.

And the TGI (IGROV1 ovarian)?
The TGI was 27.5 µM.

What about the GI50 (HOP-62 NSCLC) of the same compound?
The GI50 was 14.1 µM.

What about the TGI (HOP-62 NSCLC) of the same compound?
The TGI was 29.5 µM.

And the GI50 (NCI-H226 lung)?
Its GI50 is 11.8 µM.

What about the TGI (NCI-H226 lung) of the same compound?
Its TGI is 25.3 µM.

And the GI50 (HS 578T breast)?
The GI50 was 11.5 µM.

What about the TGI (HS 578T breast) of the same compound?
Its TGI is 31.8 µM.

What about the GI50 (K-562 leukemia) of the same compound?
The GI50 was 6.99 µM.

And the TGI (K-562 leukemia)?
Its TGI is 98.8 µM.

And the GI50 (KM12 colon)?
The GI50 was 15.4 µM.

And the TGI (KM12 colon)?
The TGI was 33.2 µM.

What about the GI50 (RXF 393 renal) of the same compound?
Its GI50 is 6.45 µM.

What about the TGI (RXF 393 renal) of the same compound?
The TGI was 19.5 µM.

What about the GI50 (NCI-H460 lung) of the same compound?
The GI50 was 12.9 µM.

What about the TGI (NCI-H460 lung) of the same compound?
The TGI was 27.6 µM.

What about the GI50 (SN12C renal) of the same compound?
Its GI50 is 11.8 µM.

And the TGI (SN12C renal)?
The TGI was 24 µM.

And the GI50 (HCC-2998 colon)?
Its GI50 is 13.4 µM.

And the TGI (HCC-2998 colon)?
The TGI was 26 µM.

What about the GI50 (OVCAR-8 ovarian) of the same compound?
Its GI50 is 13.2 µM.

And the TGI (OVCAR-8 ovarian)?
The TGI was 30.8 µM.

And the GI50 (NCI-H23 lung)?
The GI50 was 10.1 µM.

And the TGI (NCI-H23 lung)?
The TGI was 21.7 µM.

And the GI50 (OVCAR-3 ovarian)?
The GI50 was 13.5 µM.

And the TGI (OVCAR-3 ovarian)?
Its TGI is 27.2 µM.
